According to patent US11022556B2, “Tetrazolium compound for detecting microorganisms, reagent for detecting microorganisms and method for detecting microorganisms” (JNC CORPORATION, priority 2010, dated 2021):

What was measured:
[1] = absorption wavelength and colour of the formazan dye formed from the tetrazolium compound; type: physicochemical; conditions: formazan dye produced by reduction of the tetrazolium compound
general viable cells = assay: comparative test for detecting microorganisms on sheet media for detecting general viable cells; type: cell-based; conditions: food samples (meat, precut vegetables, delicatessens); sheet medium with 0.03 g/m^3 reagent; 35° C.; 24 hours incubation vs 48 hours for 2,3,5-triphenyltetrazolium chloride
Method: Next, the results obtained by a comparative test for detecting microorganisms using the chromogenic reagent of Example 1 and the chromogenic reagent of Comparative Example are described below. The comparative test was performed as follows. First, sheet media for detecting general viable cells containing as the chromogenic reagent 0.03 g/m^3 each of tetrazolium compound A of Example 1 and 2,3,5-triphenyltetrazolium chloride of Comparative Example, respectively, were prepared. The sheet media for general viable cells were the same except that the chromogenic reagents were different.
Then, 10 g of either one of meat, precut vegetables, delicatessens, etc. was put into a sterilized bag and 100 ml of sterile saline was added thereto. The mixture was homogenized with a stomacher. […]
The sheet medium of Example 1 for detecting general viable cells containing the chromogenic reagent was incubated for 24 hours and the sheet medium for detecting general viable cells containing the chromogenic reagent for comparison was incubated for 48 hours, respectively, both at 35° C. The viable cell counts were compared between the count of viable cells visually detected by the chromogenic reagent of Example 1 and the count of viable cells detected by the chromogenic reagent of Comparative Example. […]

Row | Compound | colour developed by the formazan dye [1] | peak of absorption wavelength of the formazan dye formed [1] | number of colonies (viable cell count) visually detected, compared with the chromogenic reagent of Comparative Example (general viable cells)
1 | COc1ccccc1-n1nc(-c2ccccc2)n[n+]1-c1ccc([N+](=O)[O-])cc1.[Cl-] [tetrazolium compound A, 2-(2-Methoxyphenyl)-3-(4-nitrophenyl)-5-phenyltetrazolium chloride] | blue to bluish purple | approximately 410 nm | almost the same number or more of colonies were detected
2 | COc1cc([N+](=O)[O-])ccc1-n1nc(-c2ccccc2)n[n+]1-c1ccc([N+](=O)[O-])cc1.[Cl-] [tetrazolium compound B, 2-(2-Methoxy-4-nitrophenyl)-3-(4-nitrophenyl)-5-phenyltetrazolium chloride] | blue to bluish purple | approximately 410 nm | the colonies were detected in the same number as in or more than
